This is an account of results in US20170021014A1, “VACCINE ADJUVANTS FOR CYTOMEGALOVIRUS PREVENTION AND TREATMENT” (THE JOHNS HOPKINS UNIVERSITY, priority 2015, published 2017).

One assay has as its system HCMV TB40. Description: Plaque reduction assay in HFFs, HCMV TB40. Type of assay: cell-based, human cytomegalovirus. The conditions noted are these: MDP 10 μg/mL pretreatment 72 h, 100 PFU/well, 10 days. The method, then:
(§1) A plaque reduction assay was performed in HFFs to determine the effects of MDP treatment either before or after infection on virus replication. HFFs were seeded into 12-well plates (2×10^5 cells/well) and infected with Towne HCMV at approximately 100 plaques/well. After 90 minutes, media were aspirated, and DMEM containing 0.5% carboxymethyl-cellulose (CMC), 4% fetal bovine serum (FBS), and MDP at final concentration of 10 μg/mL were added into duplicate wells. In pretreatment experiments HFFs were first treated with MDP (10 μg/mL) for 72 h after which infection with the Towne or TB40 strains was carried out at approximately 100 plaques/well. After 90 minute adsorption, media were aspirated, and DMEM containing 0.5% CMC and 4% FBS were added into duplicate wells. After incubation at 37° C. for 8 days (Towne) or 10 days (TB40) the overlay was removed and plaques were counted after crystal violet staining.
In general terms: Plaques are areas of infected cells; plaque reduction assays count them against a control.

A further assay has as its system HCMV Towne. The assay is described as follows: Plaque reduction assay in HFFs, HCMV Towne. In kind it is cell-based, human cytomegalovirus. How it is done: as §1

As to `CC(=O)N[C@H]1C(O)O[C@H](CO)[C@@H](O)[C@@H]1O[C@H](C)C(=O)N[C@@H](C)C(=O)N[C@H](CCC(=O)O)C(N)=O` (mixture of isomers) [MDP, Muramyl dipeptide], the plaque number reduction with HCMV TB40 is roughly 70%; in the assay on HCMV Towne (MDP 10 μg/mL pretreatment 72 h, 100 PFU/well, 8 days) it was “approximately 90%”. Besides, the plaque number result with HCMV Towne (MDP 10 μg/mL after infection, 100 PFU/well, counted after 8 days) is “reduced plaque number”. For the same molecule, in the assay on HCMV Towne (control GIPZ cells, MDP pretreatment 72 h, day 8), the number of plaques entry is “significantly decreased”. In addition, the “virus replication (plaque number)” value in the assay with HCMV Towne (shIFN-β cells, MDP pretreatment 72 h, day 8) is listed as “failed to restrict virus replication”.
